Assay results: patent US5362856A, “Monooxygenase-like activity of heme proteins” (University of Toronto Innovations Foundation, priority 1993, dated 1994)

Legend:
hemoglobin-Fe(II) = experiment: Effect of added agents on the sulfite/heme protein catalysed hydroxylation; assay type: biochemical; conditions: agents in reasonable quantities
[1] = 1 uM methemoglobin, 2.0 Mm anisole, 0.6 mM sodium sulfite, pH 7.0, 37 degrees C
Description: The cleavage of anisole is a more demanding test of monooxygenase activity--see Galaris et. al., Arch. Biochem. Biophys., 1990, 281, 163 n., and Lindsay Smith et.al., J. Chem. Soc. Chem. Commun., 1982, 55. […] The reaction mixtures were preincubated for 5 mins at 37 degrees C. and then terminated by addition of ice-cold 20% trichloroacetic acid (for formaldehyde determination), or by addition of ice-cold diethyl ether and subsequent extraction with diethyl ether (for GC detection of the product phenol).

[2] = Aniline p-hydroxylation catalysed by myoglobin with sodium sulfite; assay type: biochemical; conditions: 0.1 mL of 6 mM sodium sulphite, otherwise as Example 1
Description: An experiment was conducted exactly as described above in connection with Example 1, but using myoglobin Mb, 28 mg, MW18800, from Sigma, in place of Mt, and an amount of 0.1 mL of 6 mM sodium sulphite. Otherwise conditions and quantities were the same.

Molecule | effect on the catalytic hydroxylation process (hemoglobin-Fe(II)) | other results
[C-]#[O+] [carbon monoxide] | inhibited | –
CCO [ethanol] | not subject to inhibition | –
OC[C@@H](O)[C@@H](O)[C@H](O)[C@H](O)CO [mannitol] | not subject to inhibition | –
superoxide dismutase: enzyme added to test whether superoxide is involved in the hydroxylation | no effect | –
C[S+](C)[O-] [dimethylsulfoxide] | not subject to inhibition | –
methemoglobin | – | production of phenol and formaldehyde from anisole [1]: 140 pmol/min; kinetics of hydroxylation with respect to aniline (constant sodium sulfite concentration, 37 degrees C, pH 7.0): follows Michaelis-Menten kinetics; kinetic mechanism on variation of sodium sulfite concentration (sodium sulfite 0.05-0.40 mM, Lineweaver-Burk plots (FIG. 2)): ping-pong mechanism
catalase: enzyme added to test whether peroxide is involved in the hydroxylation (protein, UniProt P00432 2-527, looked up) Catalase: ADNRDPASDQMKHWKEQRAAQKPDVLTTGGGNPVGDKLNSLTVGPRGPLLVQDVVFTDEMAHFDRERIPERVVHAKGAGAFGYFEVTHDITRYSKAKVFEHIGKRTPIAVRFSTVAGESGSADTVRDPRGFAVKFYTEDGNWDLVGNNTPIFFIRDALLFPSFIHSQKRNPQTHLKDPDMVWDFWSLRPESLHQVSFLFSDRGIPDGHRHMNGYGSHTFKLVNANGEAVYCKFHYKTDQGIKNLSVEDAARLAHEDPDYGLRDLFNAIATGNYPSWTLYIQVMTFSEAEIFPFNPFDLTKVWPHGDYPLIPVGKLVLNRNPVNYFAEVEQLAFDPSNMPPGIEPSPDKMLQGRLFAYPDTHRHRLGPNYLQIPVNCPYRARVANYQRDGPMCMMDNQGGAPNYYPNSFSAPEHQPSALEHRTHFSGDVQRFNSANDDNVTQVRTFYLKVLNEEQRKRLCENIAGHLKDAQLFIQKKAVKNFSDVHPEYGSRIQALLDKYNEEKPKNAVHTYVQHGSHLSAREKANL | no effect | –
myoglobin (protein, UniProt P68082 2-154, looked up, myoglobin Mb, MW18800, from Sigma, used in place of Mt) Myoglobin: GLSDGEWQQVLNVWGKVEADIAGHGQEVLIRLFTGHPETLEKFDKFKHLKTEAEMKASEDLKKHGTVVLTALGGILKKKGHHEAELKPLAQSHATKHKIPIKYLEFISDAIIHVLHSKHPGDFGADAQGAMTKALELFRNDIAAKYKELGFQG | – | monooxygenase activity (aniline to p-aminophenol) compared with Mt of Example 1 [2]: essentially similar result
